In paper PMC7089538, “The effects of intra-stomach obestatin administration on intestinal contractility in neonatal piglets fed milk formula” (PLoS ONE, 2020):
Where two headings read alike, the source gives them in different places. Marks after values point to notes of the source that are not given here. Where no end group is shown, it is not given here.

Columns and labels:
in vivo = conditions: male, Polish Landrace x Pietrain, pig, po, obestatin concentration in the blood plasma
duodenum = duodenum strips; for EFS-evoked amplitude of contraction: 6 days, mean ± SEM
middle jejunum [1] = conditions: middle jejunum strips; for EFS-evoked amplitude of contraction: 6 days, mean ± SEM
middle jejunum [2] = assay: ACh-stimulated or atropine-treated contractions; type: in vivo, piglets (Polish Landrace x Pietrain); conditions: O2: obestatin 2 μg/kg BW intra-stomach every 8 h, 6 days, middle jejunum strips, mean ± SEM
Method: Piglets' BW was recorded every morning. […] The protein concentration in the milk formula was 20%. […] The tissues were attached to isotonic transducers (Letica Scientific Instruments, Spain) under a load of 1.0 g that were coupled with a PowerLab recording system (ADInstruments, Sydney, Australia). […] The tissues were then washed and allowed to equilibrate. […] Half of randomly selected jejunal segments were pre-treated with atropine.

[3] = O2: obestatin 2 μg/kg BW intra-stomach every 8 h, Basal, EFS 0.5 Hz
[4] = O2: obestatin 2 μg/kg BW intra-stomach every 8 h, Basal, EFS 5 Hz
[5] = O2: obestatin 2 μg/kg BW intra-stomach every 8 h, Basal, EFS 50 Hz
[6] = O2: obestatin 2 μg/kg BW intra-stomach every 8 h, TTX 10^−6 M, EFS 0.5 Hz
[7] = O2: obestatin 2 μg/kg BW intra-stomach every 8 h, TTX 10^−6 M, EFS 5 Hz
[8] = O2: obestatin 2 μg/kg BW intra-stomach every 8 h, TTX 10^−6 M, EFS 50 Hz
[9] = O10: obestatin 10 μg/kg BW intra-stomach every 8 h, Basal, EFS 0.5 Hz
[10] = O10: obestatin 10 μg/kg BW intra-stomach every 8 h, Basal, EFS 5 Hz
[11] = O10: obestatin 10 μg/kg BW intra-stomach every 8 h, Basal, EFS 50 Hz
[12] = O10: obestatin 10 μg/kg BW intra-stomach every 8 h, TTX 10^−6 M, EFS 0.5 Hz
[13] = O10: obestatin 10 μg/kg BW intra-stomach every 8 h, TTX 10^−6 M, EFS 5 Hz
[14] = O10: obestatin 10 μg/kg BW intra-stomach every 8 h, TTX 10^−6 M, EFS 50 Hz
[15] = O15: obestatin 15 μg/kg BW intra-stomach every 8 h, Basal, EFS 0.5 Hz
[16] = O15: obestatin 15 μg/kg BW intra-stomach every 8 h, Basal, EFS 5 Hz
[17] = O15: obestatin 15 μg/kg BW intra-stomach every 8 h, Basal, EFS 50 Hz
[18] = O15: obestatin 15 μg/kg BW intra-stomach every 8 h, TTX 10^−6 M, EFS 0.5 Hz
[19] = O15: obestatin 15 μg/kg BW intra-stomach every 8 h, TTX 10^−6 M, EFS 5 Hz
[20] = O15: obestatin 15 μg/kg BW intra-stomach every 8 h, TTX 10^−6 M, EFS 50 Hz
[21] = TTX 10^−6 M, responses similar to saline-treated preparations

FNAPFDVGIKLSGAQYQQHGRAL-NH2 [obestatin]
level at 0.5 h (in vivo; 2 ug/kg BW): 0.369 ± 0.026 ng/mL
level at 1 h (in vivo; 2 ug/kg BW): 0.37 ± 0.023 ng/mL
level at 0.5 h (in vivo; 10 ug/kg BW): 0.413 ± 0.011 ng/mL
level at 1 h (in vivo; 10 ug/kg BW): 0.475 ± 0.022 ng/mL
level at 0.5 h (in vivo; 15 ug/kg BW): 0.405 ± 0.026 ng/mL
level at 1 h (in vivo; 15 ug/kg BW): 0.45 ± 0.053 ng/mL
EFS-evoked amplitude of contraction (duodenum; [3]): 2.53 ± 0.31^a mm
EFS-evoked amplitude of contraction (duodenum; [4]): 2.78 ± 0.35^a mm
EFS-evoked amplitude of contraction (duodenum; [5]): 2.95 ± 0.28^a^c mm
EFS-evoked amplitude of contraction (duodenum; [6]): 0.48 ± 0.11 mm
EFS-evoked amplitude of contraction (duodenum; [7]): 0.54 ± 0.11 mm
EFS-evoked amplitude of contraction (duodenum; [8]): 0.82 ± 0.21 mm
EFS-evoked amplitude of contraction (duodenum; [9]): 1.08 ± 0.26^b mm
EFS-evoked amplitude of contraction (duodenum; [10]): 1.25 ± 0.32^b mm
EFS-evoked amplitude of contraction (duodenum; [11]): 1.20 ± 0.29^a^d mm
EFS-evoked amplitude of contraction (duodenum; [12]): 0.56 ± 0.16 mm
EFS-evoked amplitude of contraction (duodenum; [13]): 0.59 ± 0.15 mm
EFS-evoked amplitude of contraction (duodenum; [14]): 0.86 ± 0.22 mm
EFS-evoked amplitude of contraction (duodenum; [15]): 2.34 ± 0.30^a mm
EFS-evoked amplitude of contraction (duodenum; [16]): 2.74 ± 0.37^a mm
EFS-evoked amplitude of contraction (duodenum; [17]): 3.38 ± 0.36^b^c mm
EFS-evoked amplitude of contraction (duodenum; [18]): 0.40 ± 0.09 mm
EFS-evoked amplitude of contraction (duodenum; [19]): 0.46 ± 0.01 mm
EFS-evoked amplitude of contraction (duodenum; [20]): 0.77 ± 0.22 mm
effect of obestatin on EFS-evoked contraction following pre-incubation with TTX (duodenum; [21]): the effects of obestatin were blocked
EFS-evoked amplitude of contraction (middle jejunum [1]; [3]): 0.53 ± 0.26^a^c mm
EFS-evoked amplitude of contraction (middle jejunum [1]; [4]): 0.70 ± 0.35^a mm
EFS-evoked amplitude of contraction (middle jejunum [1]; [5]): 1.22 ± 0.59^a mm
EFS-evoked amplitude of contraction (middle jejunum [1]; [6]): 0.17 ± 0.07 mm
EFS-evoked amplitude of contraction (middle jejunum [1]; [7]): 0.20 ± 0.08 mm
EFS-evoked amplitude of contraction (middle jejunum [1]; [8]): 0.31 ± 0.17 mm
EFS-evoked amplitude of contraction (middle jejunum [1]; [9]): 1.75 ± 0.18^a^d mm
EFS-evoked amplitude of contraction (middle jejunum [1]; [10]): 1.75 ± 0.18^a^b mm
EFS-evoked amplitude of contraction (middle jejunum [1]; [11]): 1.49 ± 0.30^a mm
EFS-evoked amplitude of contraction (middle jejunum [1]; [12]): 0.28 ± 0.10 mm
EFS-evoked amplitude of contraction (middle jejunum [1]; [13]): 0.30 ± 0.12 mm
EFS-evoked amplitude of contraction (middle jejunum [1]; [14]): 0.45 ± 0.15 mm
EFS-evoked amplitude of contraction (middle jejunum [1]; [15]): 2.47 ± 0.23^b^d mm
EFS-evoked amplitude of contraction (middle jejunum [1]; [16]): 2.74 ± 0.37^b mm
EFS-evoked amplitude of contraction (middle jejunum [1]; [17]): 3.76 ± 0.29^b mm
EFS-evoked amplitude of contraction (middle jejunum [1]; [18]): 0.46 ± 0.23 mm
EFS-evoked amplitude of contraction (middle jejunum [1]; [19]): 0.34 ± 0.11 mm
EFS-evoked amplitude of contraction (middle jejunum [1]; [20]): 0.61 ± 0.27 mm
effect of obestatin on EFS-evoked contraction following pre-incubation with TTX (middle jejunum [1]; [21]): the effects of obestatin were blocked
amplitude of ACh stimulated contractions (middle jejunum [2]; ACh^-4 (10^−4 M, cumulative)): 12.3 ± 1.0^a^b mm
amplitude of ACh stimulated contractions (middle jejunum [2]; ACh^-5 (10^−5 M, cumulative)): 8.0 ± 0.9 mm
amplitude of ACh stimulated contractions (middle jejunum [2]; ACh^-6 (10^−6 M, cumulative)): 6.3 ± 0.9^a^b mm
